SMILES strings stand for the structures.

The first test deals with NQO1 specific enzyme activity in BEAS-2B cells (marker for NRF2 activation). Nature of the test: BEAS-2B NQO1 MTT Assay. Format: cell-based. The note with it: Homo sapiens, BEAS-2B, 48 h, NQO1 specific activity induction, 48 hours with compound. The text has this: NAD(P)H:quinone oxidoreductase 1 (NQO1), also called DT diaphorase, is a homodimeric FAD-containing enzyme that catalyzes obligatory NAD(P)H-dependent two-electron reductions of quinones and protects cells against the toxic and neoplastic effects of free radicals and reactive oxygen species arising from one-electron reductions. The transcription of NQO1 is finely regulated by NRF2, and thus NQO1 activity is a good marker for NRF2 activation. On day one, frozen BEAS-2B cells (ATCC) were thawed in a water bath, counted, and re-suspended at a concentration of 250,000 cells/mL. Fifty microliters of cells were plated in 384 well black clear-bottomed plates. Plates were incubated at 37° C., 5% CO2 overnight. On day two, plates were centrifuged and 50 nL of compound or controls were added to the cells. Plates were then incubated at 37° C., 5% CO2 for 48 hours. On day four, medium was aspirated from the plate and crude cell lysates were made by adding 13 uL of 1× Cell Signaling Technologies lysis buffer with 1 Complete, Mini, EDTA-free Protease Inhibitor Tablet (Roche) for each 10 mL of lysis buffer. After lysis plates were incubated for 20 minutes at room temperature. Two microliters of lysate were removed for use in Cell Titer Glo assay (Promega) and MTT cocktail was prepared (Prochaska et. al. 1998) for measurement of NQO1 activity. Fifty microliters of MTT cocktail is added to each well, plate is centrifuged, and analyzed on an Envision plate reader (Perkin Elmer) using Absorbance 570 nm label for 30 minutes. Product formation was measured kinetically and the pEC50 of NQO1 specific activity induction was calculated by plotting the change in absorbance (Delta OD/min) versus the log of compound concentration followed by 3-parameter fitting.
pEC50 is the negative log of the EC50.
EC50s<1 nM (+++++), EC50s 1 nM-10 nM (++++), EC50s 10 nM-100 nM (+++), EC50s 100 nM-1 uM (++), EC50s 1 uM-10 uM (+), EC50s>10 uM (−), or were not determined (ND).
By EC50 is commonly meant the midpoint of the concentration-response curve. `CC[C@@H]1CN(Cc2cc([C@@H](CC(=O)O)c3ccc4c(nnn4CC)c3C)sc2Cl)S(=O)(=O)c2cnccc2O1` [Example 1, (S)-3-(5-Chloro-4-(((R)-4-ethyl-1,1-dioxido-3,4-dihydro-2H-pyrido[4,3-b][1,4,5]oxathiazepin-2-yl)methyl)thiophen-2-yl)-3-(1-ethyl-4-methyl-1H-benzo[d][1,2,3]triazol-5-yl)propanoic acid]: the EC50 fell in the range of 100 to 1000 nM.

As for `CC[C@@H]1CN(Cc2cc([C@@H](CC(=O)O)c3ccc4c(nnn4CC)c3C)sc2Cl)S(=O)(=O)c2cccnc2O1` [Example 2, (S)-3-(5-Chloro-4-(((R)-4-ethyl-1,1-dioxido-3,4-dihydro-2H-pyrido[2,3-b][1,4,5]oxathiazepin-2-yl)methyl)thiophen-2-yl)-3-(1-ethyl-4-methyl-1H-benzo[d][1,2,3]triazol-5-yl)propanoic acid], the EC50 lay within 1000 to 10000 nM. For `CC[C@@H]1CN(Cc2cc([C@@H](c3ccc4c(nnn4CC)c3C)C(C)(C)C(=O)O)sc2Cl)S(=O)(=O)c2ccccc2O1` [Example 3, (S)-3-(5-Chloro-4-(((R)-4-ethyl-1,1-dioxido-3,4-dihydro-2H-benzo[b][1,4,5]oxathiazepin-2-yl)methyl)thiophen-2-yl)-3-(1-ethyl-4-methyl-1H-benzo[d][1,2,3]triazol-5-yl)-2,2-dimethylpropanoic acid], the EC50 is below 1 nM.

As to `CC[C@@H]1CN(Cc2cc([C@H](c3ccc4c(nnn4CC)c3C)C(C)(C)C(=O)O)sc2Cl)S(=O)(=O)c2ccccc2O1` [Example 4, (R)-3-(5-Chloro-4-(((R)-4-ethyl-1,1-dioxido-3,4-dihydro-2H-benzo[b][1,4,5]oxathiazepin-2-yl)methyl)thiophen-2-yl)-3-(1-ethyl-4-methyl-1H-benzo[d][1,2,3]triazol-5-yl)-2,2-dimethylpropanoic acid], the EC50 is 100 to 1000 nM.

In the case of `CC[C@@H]1CN(Cc2cc([C@H](CC(=O)O)c3ccc4c(nnn4CC)c3C)sc2Cl)S(=O)(=O)c2ccccc2O1` [Example 5, (R)-3-(5-Chloro-4-(((R)-4-ethyl-1,1-dioxido-3,4-dihydro-2H-benzo[b][1,4,5]oxathiazepin-2-yl)methyl)thiophen-2-yl)-3-(1-ethyl-4-methyl-1H-benzo[d][1,2,3]triazol-5-yl)propanoic acid], the EC50 lay in the range of 10 to 100 nM. Turning to `CC[C@@H]1CN(Cc2cc([C@H](CC(=O)O)c3ccc4c(nnn4CC)c3C)sc2Cl)S(=O)(=O)c2cccnc2O1` [Example 6, (R)-3-(5-Chloro-4-(((R)-4-ethyl-1,1-dioxido-3,4-dihydro-2H-pyrido[2,3-b][1,4,5]oxathiazepin-2-yl)methyl)thiophen-2-yl)-3-(1-ethyl-4-methyl-1H-benzo[d][1,2,3]triazol-5-yl)propanoic acid], the EC50 was in the range of 10 to 100 nM. Same read-out and setting: with `CC[C@@H]1CN(Cc2cc([C@@H](c3ccc4c(nnn4CC)c3C)C(C)(C)C(=O)O)sc2C)S(=O)(=O)c2cccnc2O1` [Example 7, (S)-3-(4-(((R)-4-Ethyl-1,1-dioxido-3,4-dihydro-2H-pyrido[2,3-b][1,4,5]oxathiazepin-2-yl)methyl)-5-methylthiophen-2-yl)-3-(1-ethyl-4-methyl-1H-benzo[d][1,2,3]triazol-5-yl)-2,2-dimethylpropanoic acid] the figure was below 1 nM.

Regarding `CCn1nnc2c(C)c([C@H](c3cc(CN4CC(C)(C)Oc5ncccc5S4(=O)=O)c(C)s3)C(C)(C)C(=O)O)ccc21` [Example 8, (S)-3-(4-((4,4-Dimethyl-1,1-dioxido-3,4-dihydro-2H-pyrido[2,3-b][1,4,5]oxathiazepin-2-yl)methyl)-5-methylthiophen-2-yl)-3-(1-ethyl-4-methyl-1H-benzo[d][1,2,3]triazol-5-yl)-2,2-dimethylpropanoic Acid], the EC50 lay in the range of 1 to 10 nM. As to `CC[C@@H]1CN(Cc2cc([C@@H](c3ccc4c(nnn4CC)c3C)C(C)(C)C(=O)O)sc2C)S(=O)(=O)c2cnccc2O1` [Example 9, (S)-3-(4-(((R)-4-Ethyl-1,1-dioxido-3,4-dihydro-2H-pyrido[4,3-b][1,4,5]oxathiazepin-2-yl)methyl)-5-methylthiophen-2-yl)-3-(1-ethyl-4-methyl-1H-benzo[d][1,2,3]triazol-5-yl)-2,2-dimethylpropanoic Acid], the EC50 is below 1 nM.

Take `CC[C@@H]1CN(Cc2cc([C@@H](c3ccc4c(nnn4CC)c3C)C(C)(C)C(=O)O)sc2C)S(=O)(=O)c2ccccc2O1` [Example 10, (S)-3-(4-(((R)-4-Ethyl-1,1-dioxido-3,4-dihydro-2H-benzo[b][1,4,5]oxathiazepin-2-yl)methyl)-5-methylthiophen-2-yl)-3-(1-ethyl-4-methyl-1H-benzo[d][1,2,3]triazol-5-yl)-2,2-dimethylpropanoic Acid]: the EC50 was below 1 nM. With `CC[C@@H]1CN(Cc2cc([C@H](c3ccc4c(nnn4CC)c3C)C(C)(C)C(=O)O)sc2C)S(=O)(=O)c2ccccc2O1` [Example 11, (R)-3-(4-(((R)-4-Ethyl-1,1-dioxido-3,4-dihydro-2H-benzo[b][1,4,5]oxathiazepin-2-yl)methyl)-5-methylthiophen-2-yl)-3-(1-ethyl-4-methyl-1H-benzo[d][1,2,3]triazol-5-yl)-2,2-dimethylpropanoic Acid], the EC50 lay in the range of 10 to 100 nM.

For the compound `CCC1CCN(Cc2nccn2Cc2cc([C@@H](c3ccc4c(nnn4CC)c3C)C(C)(C)C(=O)O)sc2C)CC1` [Example 12, (S)-3-(1-Ethyl-4-methyl-1H-benzo[d][1,2,3]triazol-5-yl)-3-(4-((2-((4-ethylpiperidin-1-yl)methyl)-1H-imidazol-1-yl)methyl)-5-methylthiophen-2-yl)-2,2-dimethylpropanoic acid], the EC50 is 1 to 10 nM. For `CCn1nnc2c(C)c([C@H](c3cc(CN4CC(=O)N(C)CC(C)(C)C4)c(C)s3)C(C)(C)C(=O)O)ccc21` [Example 15, (S)-3-(1-Ethyl-4-methyl-1H-benzo[d][1,2,3]triazol-5-yl)-2,2-dimethyl-3-(5-methyl-4-((4,6,6-trimethyl-3-oxo-1,4-diazepan-1-yl)methyl)thiophen-2-yl)propanoic Acid], the EC50 lay in the range of 1 to 10 nM. Regarding `CCn1nnc2c(C)c([C@H](c3cc(CN4C[C@H](C)Cc5ncccc5S4(=O)=O)c(C)s3)C(C)(C)C(=O)O)ccc21` [Example 16, (S)-3-(1-Ethyl-4-methyl-1H-benzo[d][1,2,3]triazol-5-yl)-2,2-dimethyl-3-(5-methyl-4-(((R)-4-methyl-1,1-dioxido-4,5-dihydropyrido[2,3-f][1,2]thiazepin-2(3H)-yl)methyl)thiophen-2-yl)propanoic Acid], the half-maximal effective concentration (EC50) lay in the range of 1 to 10 nM.

Staying with this test, now noted: NQO1 specific activity induction, 48 hours with compound.
Turning to `CC[C@@H]1CN(Cc2nc(C(c3ccc4c(nnn4CC)c3C)C(C)(C)C(=O)O)sc2C)S(=O)(=O)c2ccccc2O1` (single isomer, unassigned; isomer 1) [Example 13, (R or S)-3-(4-(((R)-4-Ethyl-1,1-dioxido-3,4-dihydro-2H-benzo[b][1,4,5]oxathiazepin-2-yl)methyl)-5-methylthiazol-2-yl)-3-(1-ethyl-4-methyl-1H-benzo[d][1,2,3]triazol-5-yl)-2,2-dimethylpropanoic Acid Isomer 1], the EC50 fell in the range of 1 to 10 nM.

For the compound `CC[C@@H]1CN(Cc2cc(C(CC(=O)O)c3ccc4c(nnn4CC)c3C)sc2C)S(=O)(=O)c2ccccc2O1` (single isomer, unassigned; isomer 1) [Example 20, (R or S)-3-(4-(((R)-4-Ethyl-1,1-dioxido-3,4-dihydro-2H-benzo[b][1,4,5]oxathiazepin-2-yl)methyl)-5-methylthiophen-2-yl)-3-(1-ethyl-4-methyl-1H-benzo[d][1,2,3]triazol-5-yl)propanoic acid Isomer 1], the EC50 is 10 to 100 nM. Turning to `CC[C@@H]1CN(Cc2nc(C(c3ccc4c(nnn4CC)c3C)C(C)(C)C(=O)O)sc2C)S(=O)(=O)c2ccccc2O1` (single isomer, unassigned; isomer 2) [Example 14, (R or S)-3-(4-(((R)-4-Ethyl-1,1-dioxido-3,4-dihydro-2H-benzo[b][1,4,5]oxathiazepin-2-yl)methyl)-5-methylthiazol-2-yl)-3-(1-ethyl-4-methyl-1H-benzo[d][1,2,3]triazol-5-yl)-2,2-dimethylpropanoic Acid Isomer 2], the EC50 lay in the range of 10 to 100 nM. Still for that read-out and setting: with `CC[C@@H]1CN(Cc2cc(C(CC(=O)O)c3ccc4c(nnn4CC)c3C)sc2C)S(=O)(=O)c2ccccc2O1` (single isomer, unassigned; isomer 2) [Example 21, (R or S)-3-(4-(((R)-4-Ethyl-1,1-dioxido-3,4-dihydro-2H-benzo[b][1,4,5]oxathiazepin-2-yl)methyl)-5-methylthiophen-2-yl)-3-(1-ethyl-4-methyl-1H-benzo[d][1,2,3]triazol-5-yl)propanoic Acid Isomer 2] the figure was 100 to 1000 nM.

Values taken from patent US11117905B2, “Bisaryl heterocycles as NRF2 activators” (GLAXOSMITHKLINE INTELLECTUAL PROPERTY DEVELOPMENT LIMITED, priority 2016, dated 2021).
